Data from patent US20250186398A1, “CONTINUOUS DOSING REGIMEN FOR TREATMENT OF A CONDITION OF THE EYE” (EYEPOINT PHARMACEUTICALS, INC., priority 2022, published 2025).

How the values were obtained:
[1] = tested on: Laser-Induced Choroidal Neovascularization (CNV); test: Swine (Mini-pig) Model of Laser-Induced Choroidal Neovascularization, fluorescein angiography (Example 7); type: in vivo
Experimental: Safety and efficacy of a vorolanib insert were evaluated in a Swine (Mini-pig) Model of Laser-Induced Choroidal Neovascularization (CNV). The primary objective of this study was to evaluate the long-term safety and inhibition of vascular permeability and neovascularization in a laser-induced model of choroidal neovascularization (CNV) using a vorolanib insert in swine.
On the day of lasering (Groups 1-4) animals were treated with an 810 nm diode laser delivered through an indirect ophthalmoscope. Approximately 6 single laser spots were placed between retinal veins. Both eyes underwent laser treatment according to the schedule in the table above.
On the day of intravitreal injections animals were anesthetized and the eyes were aseptically prepared. […] Animals were allowed to recover normally from the procedure. The pigs were given a topical drop of antibiotic ophthalmic solution 4-6 hours later, and then BID for 2 additional days with at least 6 hours between doses. Animals were dosed on either Day 0 immediately following laser CNV induction or 7 days prior to laser CNV induction according to the schedule in the table above.
Flourescein Angiography was done in both eyes in anesthetized animals at the timepoints as indicated in the experimental design table.

[2] = Intravitreal Pharmacokinetic Study of vorolanib insert, 12 months (Example 5B); type: in vivo, Dutch Belted Rabbits
Experimental: Another Intravitreal Pharmacokinetic Study was performed in Dutch Belted Rabbits. The objective of this study was to evaluate the plasma and ocular pharmacokinetics of a vorolanib insert following bilateral intravitreal injection in rabbit eyes. Animals were evaluated up to 12 months following placement of the intravitreal insert.
Dutch Belted rabbits were administered vorolanib inserts in each eye by intravitreal injection. Group 1 eyes received 1 insert containing 643 μg of vorolanib, and Group 2 eyes received 2 inserts containing 900 μg total. Blood samples were collected at 2, 7, 14, and 28 days and then once monthly for months 2-12. Inserts were recovered at 2, 7, and 14 days and then at 1, 2, 4, 6, 8, 10, and 12 months. Residual vorolanib levels were determined in all explants using high-performance liquid chromatography. The vorolanib release rate was estimated based on residual levels in the explants. Plasma and ocular tissues were separated and analyzed for vorolanib and its metabolite using liquid chromatography-mass spectrometry.

[3] = Intravitreal Pharmacokinetic Study of vorolanib insert (Example 5A); type: in vivo, Male Dutch Belted Rabbits
Experimental: An Intravitreal Pharmacokinetic Study was performed in Male Dutch Belted Rabbits. The objective of this study was to characterize the plasma and ocular tissue pharmacokinetics of a vorolanib insert following bilateral intravitreal injection on Day 1. Animals were evaluated up to 24 months following placement of the intravitreal insert.
The low dose group (1) received 3 inserts per eye for a total dose of 630 μg per eye. The high dose group (2) animals received 6 inserts per eye given in 2 separate injections (3 inserts per injection) for a total dose of 1,260 μg per eye.
Prior to each scheduled sacrifice point, one whole blood sample was collected from a targeted 2 animals per group via puncture of a marginal ear vein. Samples were tested for levels of vorolanib and its metabolite. Two animals per group were euthanized on day 1 at 6, 12, 24 and 48 hours, on days 7 and 14, and at 1, 2, 4, 6, 8, 16 and 24 months.

[4] = 18 month intravitreal toxicity and plasma pharmacokinetics study (Example 6); type: in vivo
Experimental: An 18 month intravitreal toxicity study for the insert was also performed in 80 Dutch Belted rabbits (40 male and 40 female). Animals were evaluated for a period of 6 and 18 months following placement of intravitreal inserts. The objective was to characterize the ocular toxicity, plasma pharmacokinetics and biodegradation of a vorolanib insert following bilateral intravitreal injection.
The tables below describe the group assignments and dose levels. For the toxicology groups, animals were sacrificed at 6 months and 18 months. For the plasma pharmacokinetic analysis, blood samples were collected at Days 1, 3, and 7 and then 1, 2, 3, 4, 5, 6, 12, 14, 16 and 18 Months.
The placebo group (1) animals received two placebo inserts by injection in each eye. The low dose group (2) animals received 2 inserts in each eye. The mid dose group (3) animals received 3 inserts in each eye given in 2 separate injections. The high dose group (4) animals received 4 inserts in each eye given in 2 separate injections (2 inserts/injection). The highest dose group (5) animals received 6 inserts in each eye given in 2 separate injections (3 inserts/injection).
At each scheduled timepoint, whole blood was collected via puncture of a marginal ear vein. Samples were analyzed for clinical pathology and plasma pharmacokinetics. Animals were euthanized according to the schedules described above. A complete gross necropsy was performed on all animals that were sacrificed or found dead during the study. Organs were weighed and tissues collected. Ocular tissues were collected for histopathology only.

| Molecule | efficacy in this model ([1]; 2 mg IVT) | reduction in Corrected Total Lesion Fluorescence (CTLF) from Day 7 to Day 28, rank among Groups 1-4 ([1]; Group 1, 2 mg, 50 μL/eye IVT, Day 0) | drop in mean vorolanib concentration in ocular tissues and plasma ([2]; between months 8 and 10) | vorolanib exposure rank order ([2]; ocular tissues and plasma) | concentrations in target ocular tissues (choroid and retina) relative to IC50 for VEGFR2 ([2]; through 8 months) | dose proportionality of maximum observed concentrations in vitreous and retina/choroid ([3]; 630 vs 1,260 μg per eye) | vorolanib plasma levels ([3]; PK study, intravitreal inserts) | change in plasma levels ([3]; after 99 days) | vorolanib levels in the vitreous and the retina/choroid relative to IC50 for VEGFR ([4]; at the time points tested) | vorolanib plasma levels ([4]; intravitreal inserts) | adverse findings attributed to vorolanib ([4]; up to 6 inserts per eye) |
| --- | --- | --- | --- | --- | --- | --- | --- | --- | --- | --- | --- |
| aflibercept: VEGF inhibitor (Regeneron), intravitreal standard of care, comparator in swine CNV model | normal amounts of efficacy | largest reduction |  |  |  |  |  |  |  |  |  |
| Cc1[nH]c(/C=C2\C(=O)Nc3ccc(F)cc32)c(C)c1C(=O)N[C@H]1CCN(C(=O)N(C)C)C1 [vorolanib, (S,Z)—N-(1-(Dimethylcarbamoyl)pyrrolidin-3-yl)-5-((5-fluoro-2-oxoindolin-3-ylidene)methyl)-2,4-dimethyl-1H-pyrrole-3-carboxamide] |  |  | 85%-99% | choroid=retina=vitreous>aqueous humor>plasma | above the IC50 for VEGFR2 | nearly dose proportional | low pg/mL range | No apparent change | significantly above the IC50 for VEGFR | low pg/mL range | No adverse findings |
